The values that follow come from patent US20210030678A1, “CANNABINOID AND CBD LIPOSOME FORMULATIONS AND USES THEREOF” (Medterra Pharma, priority 2019, published 2021).

Each structure is given as a SMILES string.

The test deals with circulating TNFα. The test is described as follows: Circulating TNFα versus time post inflammatory trigger (FIG. 17). In kind it is in vivo. The note with it: systemic inflammatory event; equal doses. The text has this:
FIG. 17 includes a graph illustrating the relative percentage of circulating TNFα versus time post inflammatory trigger for a control, CBD and packaged CBD application.

For the compound `C=C(C)[C@@H]1CCC(C)=C[C@H]1c1c(O)cc(CCCCC)cc1O` [CBD, Cannabidiol], the “effect on relative concentration of circulating TNFα” value is reported as “able to quell a systemic inflammatory event”.
